{"source": "patent US20020058072A1", "about": "“Use of iodide salt as an aphrodisiac” (priority 2000, published 2002)", "system": "human", "assay": "Oral administration to an adult human: aphrodisiac effect and increased vaginal lubrication", "assay_type": "in vivo", "details": "3 ml of 5M sodium iodide in water added to 20 ml lemon juice plus 1 tbsp sugar; patient", "text": "The terms “aphrodisiac” or “heightened sexual desire”, for the purposes of the present invention, refer to the following physical manifestations including clitoral swelling, nipple erection, contraction of the vaginal musculature, and a general tingling sensation.\nSpecifically, after oral administration of an iodide salt, the subject experienced increased vaginal lubrication. The term “increased vaginal lubrication”, as used herein, refers to an increased amount of transudate present in the vagina above the amount of transudate present in the vagina above the amount of transudate present in the unstimulated state.\nThe syrup was administered orally to a human, weighing approximately 165 pounds. About 0.5 to 3.0 teaspoons of the hydriodic acid syrup was admixed with approximately 8 ounces of tap water and then ingested.\nTo 20 ml of lemon juice are added 3 ml of a 5M solution of sodium iodide in water, and 1 tbsp of sugar is added to the resultant solution."}
{"smiles": "[I-].[Na+]", "note": "[sodium iodide]", "values": [{"measurement": "reaction observed after administration (arousal, vaginal lubrication)", "result": "arousal and increased vaginal lubrication"}]}
